From patent publication US7531553B2, “Heterocyclic compounds and methods of use” (Amgen Inc., priority 2003, dated 2009)

Test system: Human Umbilical Vein Endothelial cells
Assay: HUVEC proliferation assay (VEGF-stimulated)
Type: cell-based
Conditions: VEGF 50 ng/mL final, 72 h incubation, CyQuant dye, read-out: inhibited VEGF-stimulated HUVEC proliferation at a level (IC50)
Method: Human Umbilical Vein Endothelial cells are purchased from Clonetics, Inc., as cryopreserved cells harvested from a pool of donors. These cells, at passage 1, are thawed and expanded in EBM-2 complete medium, until passage 2 or 3. The cells are trypsinized, washed in DMEM+10% FBS+antibiotics, and spun at 1000 rpm for 10 min. Prior to centrifugation of the cells, a small amount is collected for a cell count. After centrifugation, the medium is discarded, and the cells are resuspended in the appropriate volume of DMEM+10% FBS+antibiotics to achieve a concentration of 3×10^5 cells/mL. Another cell count is performed to confirm the cell concentration. The cells are diluted to 3×10^4 cells/mL in DMEM+10% FBS+antibiotics, and 100 μL of cells are added to a 96-well plate. The cells are incubated at 37° C. for 22 h.
Prior to the completion of the incubation period, compound dilutions are prepared. Five-point, five-fold serial dilutions are prepared in DMSO, at concentrations 400-fold greater than the final concentrations desired. 2.5 μL of each compound dilution are diluted further in a total of 1 mL DMEM+10% FBS+antibiotics (400× dilution). Medium containing 0.25% DMSO is also prepared for the 0 μM compound sample. After 22-h, the medium is removed from the cells, and 100 μL of each compound dilution is added. The cells are incubated at 37° C. for 2-3 h.
During the compound pre-incubation period, the growth factors are diluted to the appropriate concentrations. Solutions of DMEM+10% FBS+antibiotics, containing either VEGF or bFGF at the following concentrations: 50, 10, 2, 0.4, 0.08, and 0 ng/mL are prepared. For the compound-treated cells, solutions of VEGF at 550 ng/mL or bFGF at 220 ng/mL for 50 ng/mL or 20 ng/mL final concentrations, respectively, are prepared since 10 μL of each will be added to the cells (110 μL final volume). At the appropriate time after adding the compounds, the growth factors are added. VEGF is added to one set of plates, while bFGF is added to another set of plates. For the growth factor control curves, the media on wells B4-G6 of plates 1 and 2 are replaced with media containing VEGF or bFGF at the varying concentrations (50-0 ng/mL). The cells are incubated at 37° C. for an additional 72 h.
At the completion of the 72 h incubation period, the medium is removed, and the cells are washed twice with PBS. After the second wash with PBS, the plates are tapped gently to remove excess PBS, and the cells are placed at −70° C. for at least 30 min. […] Raw data are collected and analyzed using a 4-parameter fit equation in XLFit. IC50 values are then determined.

Row | SMILES | IC50 [µM]
1 | COc1cc2nccc(Oc3ccc4oc(Nc5ccc(Cl)c(CN6CCN(C)CC6)c5)nc4c3)c2cc1OC [Example 45, 5-((6,7-bis(Methoxy)-4-quinolinyl)oxy)-N-(4-chloro-3-((4-methyl-1-piperazinyl)methyl)phenyl)-1,3-benzoxazol-2-amine] | < 0.1
2 | CN1CCC(COc2cc(Nc3nc4cc(Oc5ccnc6[nH]ccc56)ccc4o3)ccc2Cl)CC1 [Example 265, [4-Chloro-3-(1-methyl-piperidin-4-ylmethoxy)-phenyl]-[5-(1H-pyrrolo[2,3-b]pyridin-4-yloxy)-benzoxazol-2-yl]-amine] | < 0.1
3 | CN1CCC[C@H]1COc1cc(Nc2nc3cc(Oc4ccnc5[nH]ccc45)ccc3o2)ccc1Cl [Example 47, N-(4-Chloro-3-(((2S)-1-methyl-2-pyrrolidinyl)methoxy)phenyl)-5-(1H-pyrrolo[2,3-b]pyridin-4-yloxy)-1,3-benzoxazol-2-amine] | < 0.1
4 | CNC(=O)c1cc(Oc2ccc3oc(Nc4ccc(Cl)c(OCCN(C)C)c4)nc3c2)ccn1 [Example 249, 4-{2-[4-Chloro-3-(2-dimethylamino-ethoxy)-phenylamino]-benzoxazol-5-yloxy}-pyridine-2-carboxylic acid methylamide] | < 0.1
